{"source": "paper PMC10477481", "about": "(The Journal of Biological Chemistry, 2023)", "key": {"[1]": {"target": "matrix metalloproteinase 2, recombinant (which of the four preparations is not told) (human) (UniProt P08253)", "experiment": "flow cytometry of protein-coated microbeads (Ig-coated bead test); KD estimated by the authors from the direct binding assays with labeled CTX and the competitive displacement studies together"}, "[2]": {"system": "pro-MMP-2 activated by APMA", "details": "fluorescence-quenched MMP-specific peptide substrate; read-out: KM of FS-6 with MMP; cited from earlier work", "protocol": "The assay was performed using a fluorescence-quenched MMP-specific peptide substrate FS-6 (Sigma; catalog no.: SCP0193, KM >30 μM) ([20]). Recombinantly produced human proMMP2 enzyme, dissolved in reaction buffer (70 mM Tris [pH 8.0], 150 mM NaCl, 5 mM CaCl2, 1 μM ZnCl2, and 0.05% Brij-35) at a concentration of 500 nM, was activated by addition of 1 mM APMA and incubated at 37 °C for 1 h. The assay reaction was then composed by adding 0.5 μl activated enzyme to yield a final concentration of 2.5 nM, 94.5 μl test substance (inhibitor) in reaction buffer, and finally 5 μl substrate to reach a fi ..."}, "kallikrein": {"system": "kallikrein", "details": "cited from earlier work", "source_text": "Therefore, we produced a CTX-displaying phage clone, customized, and validated the flow cytometry–based cobalt-coated bead test for quantitative assessment of the binding tendency of ligand-displaying phages to target proteins immobilized on the surface of microbeads. To support the validation and to investigate the specificity of bind ..."}, "[3]": {"target": "T1, recombinant human active MMP-2 (Homo sapiens, UniProt P08253)", "T1 construct": "the mature active enzyme (amino acids: 110–660), expressed in E. coli (Sigma, catalog no.: SRP3118); purchased Sigma SRP3118; host or cells: E. coli", "T1 sequence (P08253 110-660)": "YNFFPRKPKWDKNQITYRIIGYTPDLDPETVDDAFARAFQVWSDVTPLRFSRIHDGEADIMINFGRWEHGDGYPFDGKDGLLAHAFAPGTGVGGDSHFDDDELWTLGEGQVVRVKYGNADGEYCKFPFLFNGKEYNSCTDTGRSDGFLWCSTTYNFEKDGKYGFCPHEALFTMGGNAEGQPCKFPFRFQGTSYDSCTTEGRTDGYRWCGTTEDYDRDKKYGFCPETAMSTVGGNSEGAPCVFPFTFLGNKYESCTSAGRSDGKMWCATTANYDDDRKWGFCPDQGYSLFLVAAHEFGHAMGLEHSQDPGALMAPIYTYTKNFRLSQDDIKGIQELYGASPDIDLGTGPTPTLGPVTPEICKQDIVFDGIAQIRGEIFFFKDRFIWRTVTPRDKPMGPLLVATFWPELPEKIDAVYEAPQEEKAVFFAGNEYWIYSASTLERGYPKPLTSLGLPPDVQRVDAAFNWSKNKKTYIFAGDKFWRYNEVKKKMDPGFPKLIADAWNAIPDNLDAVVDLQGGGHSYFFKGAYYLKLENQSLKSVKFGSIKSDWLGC", "assay_type": "biochemical", "details": "pH 7.4", "description": "The assay was performed using fluorogenic dye-quenched (DQ)-gelatin from pig skin (ThermoFisher Scientific) as substrate and recombinant human MMP-2 enzyme (Sigma; catalog no.: SRP3118), dissolved in water (100 μg/ml), and diluted further in reaction buffer (50 mM Tris, 150 mM NaCl, 5 mM CaCl2, pH = 7.4). The assay (and control) reactions were composed by loading 50 μl enzyme (or buffer), 40 μl inhibitor (or buffer), and 10 μl substrate (or buffer) into wells of a 96-well plate (PS, black, half-area, clear-bottom; Greiner Bio-One) at concentrations needed for the stated final concentrations. […] Immediately thereafter, the plate was placed in a fluorescence plate reader (SpectraMax iD3; Molecular Devices), and fluorescence was measured every 15 min for 3 h (KM measurements) or every 5 min for 1 h (inhibitor measurements) at 37 °C (λexcitation = 484 nm and λemission = 525 nm). KM was determined by measuring V0 at a series of substrate concentrations (1.25, 2.5, 5, 10, 20, and 40 μg/ml) and enzyme concentrations of 2.5, 5, and 10 nM. Thereafter, the lowest enzyme concentration with reasonably good signal-to-noise ratio (2.5 nM) and a substrate concentration (3.5 μg/ml) approximately equivalent with the determined KM value (3.4 μg/ml, i.e., 34 nmol/l as calculated with approximate MW of 100,000 g/mol for DQ gelatin) were applied in the enzyme inhibition study. […]"}}, "data": [{"compound": "chlorotoxin, synthetically produced, with carboxamide C terminus (from UniProt P45639 1-36) (peptide)", "values": [{"measurement": "Kd", "setting": "[1]", "value": "500 to 600", "unit": "nM"}]}, {"compound": "Mca-Lys-Pro-Leu-Gly-Leu-Dpa-Ala-Arg-NH2 [FS-6, fluorescence-quenched MMP-specific peptide substrate]", "values": [{"measurement": "Km", "setting": "[2]", "value": "> 30", "unit": "µM"}]}, {"compound": "ecallantide [DX-88]", "values": [{"measurement": "affinity to kallikrein", "setting": "kallikrein", "value": "subnanomolar affinity"}]}, {"compound": "CNC(=O)[C@H](Cc1c[nH]c2ccccc12)NC(=O)[C@@H](CC(=O)NO)CC(C)C", "note": "[Ilomastat, ilomastat]", "values": [{"measurement": "effect on gelatinolytic activity of MMP-2", "setting": "[3]", "value": "concentration-dependent inhibition"}]}]}
